What all share (type): functional
Experiment [1] has as its system Mus musculus. As to the kind of experiment: Percentage glucose normalization relative to the ciglitazone effect at 50 mg/kg, which lower blood glucose levels to that of the lean littermates at the dose 5 mg/kg (in mice).
Experiment [2] deals with Mus musculus. As to the kind of experiment: Percentage glucose normalization relative to the ciglitazone effect at 50 mg/kg, which lower blood glucose levels to that of the lean littermates at the dose 25 mg/kg (in mice).
For experiment [3], the system named is Mus musculus. As to the kind of experiment: Percentage glucose normalization relative to the ciglitazone effect at 50 mg/kg, which lower blood glucose levels to that of the lean littermates at the dose 1 mg/kg (in mice).
The test system of experiment [4] is Mus musculus. As to the kind of experiment: Percentage glucose normalization relative to the ciglitazone effect at 50 mg/kg, which lower blood glucose levels to that of the lean littermates at the dose 0.1 mg/kg (in mice).
Experiment [5] deals with Mus musculus. The experiment in a line: Percentage glucose normalization relative to the ciglitazone effect at 50 mg/kg, which lower blood glucose levels to that of the lean littermates at the dose 0.2 mg/kg (in mice).
For experiment [6], the system named is Mus musculus. As to the kind of experiment: Percentage glucose normalization relative to the ciglitazone effect at 50 mg/kg, which lower blood glucose levels to that of the lean littermates at the dose 10 mg/kg (in mice).
Experiment [7] deals with Mus musculus. As to the kind of experiment: Percentage glucose normalization relative to the ciglitazone effect at 50 mg/kg, which lower blood glucose levels to that of the lean littermates at the dose 0.5 mg/kg (in mice).
The test system of experiment [8] is Mus musculus. The experiment in a line: Percentage glucose normalization relative to the ciglitazone effect at 50 mg/kg, which lower blood glucose levels to that of the lean littermates at the dose 0.05 mg/kg (in mice).
The subject of experiment [9] is Mus musculus. The experiment in a line: Percentage glucose normalization relative to the ciglitazone effect at 50 mg/kg, which lower blood glucose levels to that of the lean littermates at the dose 0.025 mg/kg (in mice).

As to `Cc1oc(-c2ccccc2)nc1COc1ccc(CC2OC(=O)NC2=O)cc1` (stereo unspecified), the Glucose normalisation with Mus musculus [1] was 60%.
In turn, `O=C1NC(=O)C(Cc2ccc(Oc3ccc4oc(-c5ccccc5)nc4c3)cc2)O1` (stereo unspecified) gave a Glucose normalisation with Mus musculus [2] of 0%.
As for `Cc1oc(-c2ccc3ccccc3c2)nc1Cc1cc2cc(CC3OC(=O)NC3=O)ccc2o1` (stereo unspecified), the figures for the Glucose normalisation with Mus musculus [3], in the experiment with Mus musculus [4] and in the experiment on Mus musculus [5] were 75%, 76% and 70%, respectively.
As to `O=C1NC(=O)C(Cc2ccc(OCCc3oc(-c4ccccc4)nc3Cc3ccccc3)cc2)O1` (stereo unspecified), the Glucose normalisation with Mus musculus [6] is 40%.
Consider `Cc1oc(-c2cc(C(F)(F)F)cc(C(F)(F)F)c2)nc1CCOc1ccc(CC2OC(=O)NC2=O)cc1` (stereo unspecified), for which the values for the Glucose normalisation in the experiment with Mus musculus [7] and in the experiment with Mus musculus [5] were 95% and 14%, respectively.
With `Cc1oc(C2CCCCC2)nc1Cc1cc2cc(CC3OC(=O)NC3=O)ccc2o1` (stereo unspecified), the Glucose normalisation is 64% in the experiment on Mus musculus [4] and 91% with Mus musculus [5].
With `Cc1cccc(-c2nc(Cc3cc4cc(CC5OC(=O)NC5=O)ccc4o3)c(C)o2)c1` (stereo unspecified), the Glucose normalisation in the experiment on Mus musculus [4] was found to be 90%; in the experiment with Mus musculus [7], 100%.
For the compound `Cc1oc(-c2ccc3ccccc3c2)nc1CCOc1ccc(CC2OC(=O)NC2=O)cc1` (stereo unspecified), the figures for the Glucose normalisation with Mus musculus [3], in the experiment on Mus musculus [7] and in the experiment on Mus musculus [5] were 98%, 100% and 46%, respectively.
In turn, `Cc1sc(-c2ccc3ccccc3c2)nc1CCOc1ccc(CC2OC(=O)NC2=O)cc1` (stereo unspecified) came in with a Glucose normalisation with Mus musculus [7] of 0%.
In the case of `Cc1ccc(-c2nc(Cc3cc4cc(CC5OC(=O)NC5=O)ccc4o3)c(C)o2)cc1` (stereo unspecified), the Glucose normalisation worked out at 40% in the experiment with Mus musculus [4] and 100% with Mus musculus [5].
On to `COc1ccc(-c2nc(CCOc3ccc(CC4OC(=O)NC4=O)cc3)c(C)o2)cc1` (stereo unspecified), for which the Glucose normalisation in the experiment with Mus musculus [3] is given as 80%; in the experiment on Mus musculus [7] it was 53%.
Consider `Cc1oc(-c2ccccc2)nc1Cc1cc2cc(CC3OC(=O)NC3=O)ccc2o1` (stereo unspecified), for which the Glucose normalisation is 77% with Mus musculus [8]; 92% in the experiment on Mus musculus [4]; 65% with Mus musculus [9]; 100% in the experiment with Mus musculus [1]; 100% in the experiment with Mus musculus [5].
As to `Cc1oc(-c2ccco2)nc1CCOc1ccc(CC2OC(=O)NC2=O)cc1` (stereo unspecified), the Glucose normalisation in the experiment with Mus musculus [3] was determined as 14%; in the experiment on Mus musculus [1], 24%.
Take `Cc1oc(-c2ccccc2)nc1CCOc1ccc(CC2OC(=O)NC2=O)cc1` (stereo unspecified): the results for the Glucose normalisation in the experiment on Mus musculus [3] and with Mus musculus [7] were 100% and 28%, respectively.
Compound `Cc1oc(-c2ccccc2)nc1CCOc1ccc(C2OC(=O)NC2=O)cc1` (stereo unspecified) came in with a Glucose normalisation in the experiment with Mus musculus [3] of 0%.
`Cc1oc(-c2ccccc2)nc1CCC(=O)c1ccc(CC2OC(=O)NC2=O)cc1` (stereo unspecified): the Glucose normalisation with Mus musculus [3] was 13%; in the experiment on Mus musculus [1], 75%.
With `Cc1sc(-c2ccccc2)nc1Cc1cc2cc(CC3OC(=O)NC3=O)ccc2o1` (stereo unspecified), the Glucose normalisation in the experiment with Mus musculus [7] was determined as 0%.
On to `Cc1nc(-c2ccc3ccccc3c2)oc1CCOc1ccc(CC2OC(=O)NC2=O)cc1` (stereo unspecified), for which the values for the Glucose normalisation in the experiment with Mus musculus [3] and with Mus musculus [1] were 0% and 10%, respectively.
Regarding `Cc1oc(C2CCCCC2)nc1CCOc1ccc(CC2OC(=O)NC2=O)cc1` (stereo unspecified), the Glucose normalisation with Mus musculus [3] worked out at 61%.
